Measured values taken from US10508168B2, “Thermoplastic polymer, method of preparing thermoplastic polymer, and thermoplastic polymer composition including thermoplastic polymer” (LG CHEM, LTD., priority 2015, dated 2019).

Test: TGA test of thermal stability of emulsifier fatty acids
Assay type: physicochemical
Settings: for Thermal stability (TGA comparison): result in words; for Temperature at which loss of 5% by weight (w/w) occurs / Temperature at which loss of 50% by weight (w/w) occurs: Table 2
Text: The present inventors first performed a process of selecting emulsifier candidates to substitute for a conventionally used fatty acid-based emulsifier so as to change the emulsifier among the aforementioned materials, and then selected an emulsifier having relatively high thermal stability through a boiling point test and a TGA test in accordance with the purpose of the present invention of reducing the amount of gas generated in high-temperature extrusion and injection-molding processes.
FIG. 2 illustrates TGA test comparison results of hydrogenated ricinoleic acid as a chain-type fatty acid including a functional group according to the present invention, stearic acid as saturated fatty acid not including a branch group or a functional group, and fatty acid (FAD acid: mixture of palmitic acid, oleic acid, and stearic acid) included in a conventionally used fatty acid-based emulsifier.

Row | Compound | Loss amount at 270° C. (TGA, 270° C., Table 1) [% by weight] | Temperature at which loss of 10% by weight occurs (TGA, Table 1) [° ° C.] | Thermal stability (TGA comparison) | Temperature at which loss of 5% by weight (w/w) occurs (TGA) [°C] | Temperature at which loss of 50% by weight (w/w) occurs (TGA) [°C]
1 | CCCCCC[C@@H](O)C/C=C\CCCCCCCC(=O)O [Ricinoleic acid, ricinoleic acid] | 9 | 273 | superior to fatty acid |  | 
2 | CCCCCCC(O)CCCCCCCCCCC(=O)O (centres unmarked) [Hydrogenated ricinoleic acid, 12-hydroxy octadecanoic acid] |  |  | superior to stearic acid and fatty acid | 263 | 455
3 | CCCCCCCCCCCCCCCCCC(=O)O [Stearic acid, stearic acid, reference compound] |  |  |  | 237 | 289
